Results on eleven molecules are retold here after ChEMBL document CHEMBL4706719, “Androgen Receptor Degradation for Therapeutic Intervention of Prostate Cancer Drug Resistance” (ACS Med Chem Lett, 2021).

One may read the inhibition as the change of the read-out against control, counted positive when it falls. Read a low inhibition as a weak effect.

In this assay the target is Androgen receptor (Homo sapiens) (UniProt P10275). The experiment in a line: In vivo inhibition of AR in castrated CB17 mouse xenografted with human VCaP cells at 10 mg/kg, po via gavage measured after 16 hrs by ELISA relative to control. Background: Xenograft models place foreign cells or tissue in a host animal.

On to `CC1(C)[C@H](NC(=O)c2ccc(CCN3CCN(c4ccc5c(c4)C(=O)N(C4CCC(=O)NC4=O)C5=O)CC3)cc2)C(C)(C)[C@H]1Oc1ccc(C#N)c(Cl)c1` (stereo partly specified), for which the inhibition is above 50%.

Regarding `CC1(C)[C@H](NC(=O)c2ccc(N3CCC(CN4CCN(c5cc6c(cc5F)C(=O)N(C5CCC(=O)NC5=O)C6=O)CC4)CC3)nn2)C(C)(C)[C@H]1Oc1ccc(C#N)c(Cl)c1` (stereo partly specified), the inhibition was above 50%. Next, `CC1(C)[C@H](NC(=O)c2ccc(N3CCC(CN4CCN(c5cc6c(cc5F)C(=O)N(C5CCC(=O)NC5=O)C6=O)CC4)CC3)c(F)c2)C(C)(C)[C@H]1Oc1ccc(C#N)c(Cl)c1` (stereo partly specified): above 50%. Next, `CC1(C)[C@H](NC(=O)c2ccc(N3CCC(CN4CCN(c5ccc6c(c5F)C(=O)N(C5CCC(=O)NC5=O)C6=O)CC4)CC3)cc2)C(C)(C)[C@H]1Oc1ccc(C#N)c(Cl)c1` (stereo partly specified): above 50%; `CC1(C)[C@H](NC(=O)c2ccc(N3CCC(CN4CCN(c5ccc6c(c5)C(=O)N(C5CCC(=O)NC5=O)C6=O)CC4)CC3)nn2)C(C)(C)[C@H]1Oc1ccc(C#N)c(Cl)c1` (stereo partly specified): below 50%; `CC1(C)[C@H](NC(=O)c2ccc(N3CCN(CCCOc4ccc5c(c4)C(=O)N(C4CCC(=O)NC4=O)C5=O)CC3)cc2)C(C)(C)[C@H]1Oc1ccc(C#N)c(Cl)c1` (stereo partly specified): above 50%.

Regarding `CC1(C)[C@H](NC(=O)c2cc(F)c(CCOCCCN3CCN(c4ccc5c(c4)C(=O)N(C4CCC(=O)NC4=O)C5=O)CC3)c(F)c2)C(C)(C)[C@H]1Oc1ccc(C#N)c(Cl)c1` (stereo partly specified), the inhibition is below 50%. `CC1(C)[C@H](NC(=O)c2cnc(N3CCN(CCCOc4ccc5c(c4)C(=O)N(C4CCC(=O)NC4=O)C5=O)CC3)cn2)C(C)(C)[C@H]1Oc1ccc(C#N)c(Cl)c1` (stereo partly specified) yielded an inhibition above 50%. Consider `CC(C)N(CC1CCN(c2ccc(C(=O)N[C@H]3C(C)(C)[C@H](Oc4ccc(C#N)c(Cl)c4)C3(C)C)cc2)CC1)[C@H]1C[C@H](Oc2ccc3c(c2)C(=O)N(C2CCC(=O)NC2=O)C3=O)C1` (stereo partly specified), for which the inhibition is above 50%.

As for `CC1(C)[C@H](NC(=O)c2ccc(N3CCN(CCCCCOc4ccc5c(c4)C(=O)N([C@H]4CCC(=O)NC4=O)C5=O)CC3)nc2)C(C)(C)[C@H]1Oc1ccc(C#N)c(Cl)c1`, the inhibition was above 50%. Next, `CC1(C)[C@H](NC(=O)c2ccc(N3CCN(CCCCCOc4ccc5c(c4)C(=O)N(C4CCC(=O)NC4=O)C5=O)CC3)nc2)C(C)(C)[C@H]1Oc1ccc(C#N)c(C#N)c1` (stereo partly specified): above 50%.
